The structures appear in SMILES notation. Where two headings read alike, the source gives them in different places.

By IC50 is commonly meant the concentration needed to halve the response being measured.

The subject of assay [1] is NCI-H358 cells (express KRas G12C), Phospho-ERK. The assay is described as follows: Cellular inhibition of KRas G12C: Phospho-ERK in NCI-H358 cells. As to conditions: Homo sapiens. The assay is classed as cell-based. In short, it runs like this: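 IC50 derived by 4-parameter fit of GAPDH-normalized pERK(Thr202/Tyr204) signal, as percent of DMSO control. Signal came from in-cell immunodetection with infrared secondaries after 3 h compound exposure of KRas G12C NCI-H358 cells at 0.5% DMSO.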

For assay [2], the target named is KRas G12C (Homo sapiens, UniProt P01116, C118S/C51S/C80L/G12C). As to the kind of experiment: KRas G12C Modification Assay (LCMS detection of covalent adduct). The assay is classed as binding. In short, it runs like this: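 Covalent modification was read by reverse-phase LC/MS of intact protein after compound exposure, each reaction stopped at its time point with 25 mM acetic acid. Unmodified-protein signal, taken as percent of total, was normalised to untreated protein and reported as POC.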

Setting [3] is: pERK(Thr202/Tyr204) normalized with GAPDH, NCI-H358 cells, 3 hours, read-out: IC50.
[4] abbreviates: normalized percent of control, tested at 5 μM concentration for 3 hours.
Where [5] appears, read: NCI-H358, 3 h, pERK(Thr202/Tyr204) normalized with GAPDH, NCI-H358 cells, 3 hours, read-out: IC50.

Consider `C=CC(=O)N1CCN(c2nc(O[C@H](C)CN(C)C)nc3c2CCN(c2c(C)ccc4[nH]ncc24)C3)CC1CC#N` (stereo partly drawn) [Example 152, 2-[4-[2-[(1R)-2-(dimethylamino)-1-methyl-ethoxy]-7-(5-methyl-1H-indazol-4-yl)-6,8-dihydro-5H-pyrido[3,4-d]pyrimidin-4-yl]-1-prop-2-enoyl-piperazin-2-yl]acetonitrile], for which the concentration for half-maximal inhibition (IC50) in assay [1] (setting [3]) was 0.1 to 1000 nM. Also, the POC entry in assay [2] (setting [4]) is “C (“C”>50% POC)”.
On the same counts, the results for `C=CC(=O)N1CCN(c2nc(OCCCN3C[C@@H]4C[C@H]3CO4)nc3c2CCN(c2cc(O)cc4ccccc24)C3)CC1CC#N` (stereo partly drawn) [Example 153, 2-[4-[7-(3-hydroxy-1-naphthyl)-2-[3-[(1S,4S)-2-oxa-5-azabicyclo[2.2.1]heptan-5-yl]propoxy]-6,8-dihydro-5H-pyrido[3,4-d]pyrimidin-4-yl]-1-prop-2-enoyl-piperazin-2-yl]acetonitrile] are 0.1 to 1000 nM and “C (“C”>50% POC)”.
On to `C=CC(=O)N1CCN(c2nc(OCCCN3C[C@@H]4C[C@H]3CO4)nc3c2CCN(c2cccc4ccccc24)C3)CC1CC#N` (stereo partly drawn) [Example 154, 2-[4-[7-(1-naphthyl)-2-[3-[(1S,4S)-2-oxa-5-azabicyclo[2.2.1]heptan-5-yl]propoxy]-6,8-dihydro-5H-pyrido[3,4-d]pyrimidin-4-yl]-1-prop-2-enoyl-piperazin-2-yl]acetonitrile], for which the IC50 in assay [1] (setting [5]) fell in the range of 0.1 to 1000 nM. Moreover, the POC entry in assay [2] (setting [4]) is “C (“C”>50% POC)”.
For the compound `C=CC(=O)N1CCN(c2nc(OC[C@@H]3CCCN3C)nc3c2CCN(c2c(C)ccc4[nH]ncc24)C3)CC1` [Example 155, (S)-1-(4-(7-(5-methyl-1H-indazol-4-yl)-2-((1-methylpyrrolidin-2-yl)methoxy)-5,6,7,8-tetrahydropyrido[3,4-d]pyrimidin-4-yl)piperazin-1-yl)prop-2-en-1-one], in assay [1] (setting [3]), the IC50 fell in the range of 0.1 to 1000 nM. Besides, in assay [2] (5 µM), the POC result is “C (key: “A”≤25% POC; “B”>25% POC−≤50% POC; “C”>50% POC)”.
For the compound `C=CC(=O)N1CCN(c2nc(OC[C@@H]3CCCN3C)nc3c2CCN(c2c(C(F)(F)F)ccc4[nH]ncc24)C3)CC1` [Example 156, (S)-1-(4-(2-((1-methylpyrrolidin-2-yl)methoxy)-7-(5-(trifluoromethyl)-1H-indazol-4-yl)-5,6,7,8-tetrahydropyrido[3,4-d]pyrimidin-4-yl)piperazin-1-yl)prop-2-en-1-one], the IC50 in assay [1] (setting [5]) was in the range of 0.1 to 1000 nM. Also, in assay [2] (setting [4]), the POC entry is reported as “C (“C”>50% POC)”.
On the same counts, the results for `C=CC(=O)N1CCN(c2nc(OC[C@@H]3CCCN3C)nc3c2CCN(c2c(OC)ccc4[nH]ncc24)C3)CC1` [Example 157, (S)-1-(4-(7-(5-methoxy-1H-indazol-4-yl)-2-((1-methylpyrrolidin-2-yl)methoxy)-5,6,7,8-tetrahydropyrido[3,4-d]pyrimidin-4-yl)piperazin-1-yl)prop-2-en-1-one] are > 1000 nM and “C (“C”>50% POC)”.
On to `C=CC(=O)N1CCN(c2nc(OC[C@@H]3CCCN3C)nc3c2CCN(c2ccccc2C(C)C)C3)CC1` [Example 158, 1-[4-[7-(2-isopropylphenyl)-2-[[(2S)-1-methylpyrrolidin-2-yl]methoxy]-6,8-dihydro-5H-pyrido[3,4-d]pyrimidin-4-yl]piperazin-1-yl]prop-2-en-1-one], for which the IC50 in assay [1] (setting [3]) is > 1000 nM. Moreover, the POC entry in assay [2] (setting [4]) is “C (“C”>50% POC)”.
`C=CC(=O)N1CCN(c2nc(OC[C@@H]3CCCN3C)nc3c2CCN(c2ccccc2C(F)(F)F)C3)CC1` [Example 159, (S)-1-(4-(2-((1-methylpyrrolidin-2-yl)methoxy)-7-(2-(trifluoromethyl)phenyl)-5,6,7,8-tetrahydropyrido[3,4-d]pyrimidin-4-yl)piperazin-1-yl)prop-2-en-1-one]: the IC50 in assay [1] (setting [5]) is > 1000 nM. The POC entry in assay [2] (setting [4]) is recorded as “C (“C”>50% POC)”.
`C=CC(=O)N1CCN(c2nc(OCCCN3CCCCC3)nc3c2CCN(c2c(C)ccc4[nH]ncc24)C3)CC1` [Example 160, 1-(4-(7-(5-methyl-1H-indazol-4-yl)-2-(3-(piperidin-1-yl)propoxy)-5,6,7,8-tetrahydropyrido[3,4-d]pyrimidin-4-yl)piperazin-1-yl)prop-2-en-1-one]: the IC50 in assay [1] (setting [3]) was > 1000 nM. In addition, the POC result in assay [2] (setting [4]) was “C (“C”>50% POC)”.
For `C=CC(=O)N1CCN(c2nc(OCC3CCN(C)C3)nc3c2CCN(c2c(C)ccc4[nH]ncc24)C3)CC1` (stereo not drawn) [Example 161, 1-[4-[7-(5-methyl-1H-indazol-4-yl)-2-[(1-methylpyrrolidin-3-yl)methoxy]-6,8-dihydro-5H-pyrido[3,4-d]pyrimidin-4-yl]piperazin-1-yl]prop-2-en-1-one] the same measures were > 1000 nM and “C (“C”>50% POC)”.
On to `C=CC(=O)N1CCN(c2nc(O[C@H](C)CN(C)C)nc3c2CCN(c2c(C)ccc4[nH]ncc24)C3)CC1` [Example 162, 1-[4-[2-[(1R)-2-(dimethylamino)-1-methyl-ethoxy]-7-(5-methyl-1H-indazol-4-yl)-6,8-dihydro-5H-pyrido[3,4-d]pyrimidin-4-yl]piperazin-1-yl]prop-2-en-1-one], for which the IC50 in assay [1] (setting [3]) is > 1000 nM. Besides, the POC result in assay [2] (setting [4]) was “B (“B”>25% POC−≤50% POC)”.
On the same counts, the results for `C=CC(=O)N1CCN(c2nc(OCCN(CC)CC)nc3c2CCN(c2c(C)ccc4[nH]ncc24)C3)CC1` [Example 163, 1-(4-(2-(2-(diethylamino)ethoxy)-7-(5-methyl-1H-indazol-4-yl)-5,6,7,8-tetrahydropyrido[3,4-d]pyrimidin-4-yl)piperazin-1-yl)prop-2-en-1-one] are > 1000 nM and “C (“C”>50% POC)”.
For `C=CC(=O)N1CCN(c2nc(OCCN3CCCCC3)nc3c2CCN(c2c(C)ccc4[nH]ncc24)C3)CC1` [Example 164] the same measures were > 1000 nM and “C (“C”>50% POC)”.
Consider `C=CC(=O)N1CCN(c2nc(OCCCN3CCOCC3)nc3c2CCN(c2c(F)c(O)cc4ccccc24)C3)CC1` [Example 165, 1-[4-[7-(2-fluoro-3-hydroxy-1-naphthyl)-2-(3-morpholinopropoxy)-6,8-dihydro-5H-pyrido[3,4-d]pyrimidin-4-yl]piperazin-1-yl]prop-2-en-1-one], for which the IC50 in assay [1] (NCI-H358, 3 h) is > 1000 nM. The POC result in assay [2] (5 µM) is reported as “C (key: “A”≤25% POC; “B”>25% POC−≤50% POC; “C”>50% POC)”.
On the same counts, the results for `C=CC(=O)N1CCN(c2nc(OCCCN3CCOCC3)nc3c2CCN(c2cc(O)cc4sc(C)nc24)C3)CC1` [Example 166, 1-[4-[7-(6-hydroxy-2-methyl-1,3-benzothiazol-4-yl)-2-(3-morpholinopropoxy)-6,8-dihydro-5H-pyrido[3,4-d]pyrimidin-4-yl]piperazin-1-yl]prop-2-en-1-one] are > 1000 nM and “B (key: “A”≤25% POC; “B”>25% POC−≤50% POC; “C”>50% POC)”.
`C=CC(=O)N1CCN(c2nc(OCCCN3CCOCC3)nc3c2CCN(c2cc(O)cc4cc(C)[nH]c24)C3)CC1` [Example 167, 1-(4-(7-(5-hydroxy-2-methyl-1H-indol-7-yl)-2-(3-morpholinopropoxy)-5,6,7,8-tetrahydropyrido[3,4-d]pyrimidin-4-yl)piperazin-1-yl)prop-2-en-1-one]: the IC50 in assay [1] (setting [3]) was > 1000 nM. The POC entry in assay [2] (setting [4]) is “B (“B”>25% POC−≤50% POC)”.
For `C=CC(=O)N1CCN(c2nc(OCCCN3CCOCC3)nc3c2CCN(c2cc(O)cc4ccccc24)C3)C(CO)C1` (stereo not drawn) [Example 168, 1-(3-(hydroxymethyl)-4-(7-(3-hydroxynaphthalen-1-yl)-2-(3-morpholinopropoxy)-5,6,7,8-tetrahydropyrido[3,4-d]pyrimidin-4-yl)piperazin-1-yl)prop-2-en-1-one], the IC50 in assay [1] (setting [3]) is > 1000 nM. Further, the POC result in assay [2] (setting [4]) is on record as “C (“C”>50% POC)”.
Regarding `C=CC(=O)N1CCN(c2nc(OC[C@@H]3CCCN3C)nc3c2CCN(c2cc(O)cc4ccccc24)C3)C(CO)C1` (stereo partly drawn) [Example 169, 1-[3-(hydroxymethyl)-4-[7-(3-hydroxy-1-naphthyl)-2-[[(2S)-1-methylpyrrolidin-2-yl]methoxy]-6,8-dihydro-5H-pyrido[3,4-d]pyrimidin-4-yl]piperazin-1-yl]prop-2-en-1-one], the half-maximal inhibitory concentration (IC50) in assay [1] (setting [5]) was in the range of 0.1 to 1000 nM. Also, in assay [2] (setting [4]), the POC result is recorded as “C (“C”>50% POC)”.
Turning to `C=CC(=O)N1CCN(c2nc(OCCN(C)C)nc3c2CCN(c2cc(O)cc4ccccc24)C3)CC1CC#N` (stereo not drawn) [Example 170, 2-(1-acryloyl-4-(2-(2-(dimethylamino)ethoxy)-7-(3-hydroxynaphthalen-1-yl)-5,6,7,8-tetrahydropyrido[3,4-d]pyrimidin-4-yl)piperazin-2-yl)acetonitrile], in assay [1] (setting [3]), the concentration for half-maximal inhibition (IC50) is 0.1 to 1000 nM. The POC result in assay [2] (setting [4]) is “C (“C”>50% POC)”.
As for `C=CC(=O)N1CCN(c2nc(OCCN(C)C)nc3c2CCN(c2cc(O)cc4ccccc24)C3)CC1CCO` (stereo not drawn) [Example 171, 1-(4-(2-(2-(dimethylamino)ethoxy)-7-(3-hydroxynaphthalen-1-yl)-5,6,7,8-tetrahydropyrido[3,4-d]pyrimidin-4-yl)-2-(2-hydroxyethyl)piperazin-1-yl)prop-2-en-1-one], the IC50 in assay [1] (NCI-H358, 3 h) is > 1000 nM. The POC entry in assay [2] (5 µM) is listed as “C (key: “A”≤25% POC; “B”>25% POC−≤50% POC; “C”>50% POC)”.
Turning to `C=CC(=O)N1CCN(c2nc(OCCN(C)C)nc3c2CCN(c2cc(O)cc4ccccc24)C3)C(CCO)C1` (stereo not drawn) [Example 172, 1-(4-(2-(2-(dimethylamino)ethoxy)-7-(3-hydroxynaphthalen-1-yl)-5,6,7,8-tetrahydropyrido[3,4-d]pyrimidin-4-yl)-3-(2-hydroxyethyl)piperazin-1-yl)prop-2-en-1-one], in assay [1] (setting [5]), the IC50 is > 1000 nM. In addition, in assay [2] (setting [4]), the POC result is reported as “C (“C”>50% POC)”.

The values are drawn from patent US10125134B2 (Mirati Therapeutics, Inc., priority 2016, dated 2018).
